Assay results published in ChEMBL document CHEMBL5321241, “Identification of new hit to lead magmas inhibitors as potential therapeutics for glioblastoma” (Bioorg Med Chem Lett, 2023).

Assays:
[1] = Lipophilicity, logP of compound; type: physicochemical; details: octanol/water
[2] = Anticancer activity against patient-derived DB70 cells assessed as cell growth inhibition inhibition incubated for 3 days; type: functional, cell-based; details: Homo sapiens, DB70, 72 h
[3] = Anticancer activity against patient-derived DB93 cells assessed as cell growth inhibition incubated for 3 days; type: functional, cell-based; details: Homo sapiens, DB93, 72 h
LN-229 = assay: Anticancer activity against human LN-229 cells assessed as cell growth inhibition inhibition incubated for 3 days; type: functional, cell-based; details: LN-229, 72 h
U-251 = assay: Anticancer activity against human U-251 cells assessed as cell growth inhibition inhibition incubated for 3 days; type: functional, cell-based; details: U-251, 72 h
[4] = Anticancer activity against human D-54MG cells assessed as cell growth inhibition inhibition incubated for 3 days; type: functional, cell-based; details: D54MG, 72 h

## CCC1=C(C)/C(=C/c2ccc(C(=O)NC(=N)N)cc2)CCC1(C)C
[1]; read-out: logP
  logP: 3.98
[2]
  IC50: 1.77 µM
[3]
  IC50: 2.09 µM
LN-229
  IC50: 6.54 µM
U-251
  IC50: 5.06 µM
[4]
  IC50: 5.6 µM

## CCC1=C(C)/C(=C/c2ccc(-c3noc(-c4ccc(Cl)cc4)n3)cc2)CCC1(C)C
[1]; read-out: logP
  logP: 8.12
U-251
  IC50: 10 µM
[4]
  IC50: > 100 µM

## CCC1=C(C)/C(=C/c2ccc(C(=O)Nc3nc4ccccc4[nH]3)cc2)CCC1(C)C
[1]; read-out: logP
  logP: 5.78
LN-229
  IC50: > 75 µM
U-251
  IC50: 4.47 µM

## CCC1=C(C)/C(=C/c2ccc(/C(N)=N/O)cc2)CCC1(C)C
[1]; read-out: logP
  logP: 4.53
U-251
  IC50: 56.8 µM
[4]
  IC50: 66.6 µM

## CCC1=C(C)/C(=C/c2ccc(C#N)cc2)CCC1(C)C
[1]; read-out: logP
  logP: 5.25
U-251
  IC50: 83.8 µM
[4]
  IC50: 72.2 µM

## CCC1=C(C)/C(=C/c2ccc(C3=NOB(c4ccccc4)N3)cc2)CCC1(C)C
[1]; read-out: logP
  logP: 6.5
[2]
  IC50: 13.3 µM
[3]
  IC50: 8.31 µM
LN-229
  IC50: 60 µM
U-251
  IC50: 26.8 µM
[4]
  IC50: 47.4 µM

## CCC1=C(C)/C(=C/c2ccc(-c3noc(-c4ccncc4)n3)cc2)CCC1(C)C
[1]; read-out: logP
  logP: 6.22
LN-229
  IC50: > 100 µM
U-251
  IC50: > 100 µM

## CCC1=C(C)/C(=C/c2ccc(-c3noc(-c4ccccc4OC(F)(F)F)n3)cc2)CCC1(C)C
[1]
  logP: 9.09
U-251
  IC50: 58.4 µM
[4]
  IC50: 65.6 µM

## CCC1=C(C)/C(=C/c2ccc(C(=O)Nc3ccc(Cl)cc3Cl)cc2)CCC1(C)C
[1]; read-out: logP
  logP: 7.14

## CCC1=C(C)/C(=C/c2ccc(-c3noc(-c4cccnc4)n3)cc2)CCC1(C)C
[1]; read-out: logP
  logP: 6.22
LN-229
  IC50: 35.6 µM
U-251
  IC50: 37.8 µM

## CCC1=C(C)/C(=C/c2ccc(C(=O)Nc3ccc(O)cc3)cc2)CCC1(C)C
[1]; read-out: logP
  logP: 5.63
U-251
  IC50: > 100 µM
[4]
  IC50: > 100 µM

## CCC1=C(C)/C(=C/c2ccc(-c3noc(-c4ccc(Br)cc4)n3)cc2)CCC1(C)C
[1]; read-out: logP
  logP: 8.39
U-251
  IC50: 7 µM
[4]
  IC50: > 100 µM

## CCC1=C(C)/C(=C/c2ccc(C(=O)Nc3ccc4[nH]c(C(F)(F)F)nc4c3)cc2)CCC1(C)C
[1]; read-out: logP
  logP: 6.37
LN-229
  IC50: > 100 µM
U-251
  IC50: > 100 µM

## CCC1=C(C)/C(=C/c2ccc(C(=O)Nc3nccs3)cc2)CCC1(C)C
[1]; read-out: logP
  logP: 5.74
LN-229
  IC50: > 100 µM
U-251
  IC50: > 100 µM

## CCC1=C(C)/C(=C/c2ccc(C(=O)Nc3ccc(C(F)(F)F)cc3)cc2)CCC1(C)C
[1]; read-out: logP
  logP: 6.94
[2]
  IC50: > 50 µM
[3]
  IC50: > 50 µM
LN-229
  IC50: 5.93 µM
U-251
  IC50: 6.04 µM
[4]
  IC50: 3.81 µM

## CCC1=C(C)/C(=C/c2ccc(C(=O)Nc3nc4ccccc4s3)cc2)CCC1(C)C
[1]; read-out: logP
  logP: 7.22
[2]
  IC50: 6.67 µM
[3]
  IC50: 3.54 µM
LN-229
  IC50: 22.8 µM
U-251
  IC50: 19.3 µM
[4]
  IC50: 6.64 µM

## CCC1=C(C)/C(=C/c2ccc(C(=O)Nc3nc4ccc(Br)cc4s3)cc2)CCC1(C)C
[1]; read-out: logP
  logP: 8.05
U-251
  IC50: 75 µM
[4]
  IC50: 100 µM

## CCC1=C(C)/C(=C/c2ccc(C(=O)Nc3ccc(OC(F)(F)F)cc3)cc2)CCC1(C)C
[1]; read-out: logP
  logP: 7.55
LN-229
  IC50: 47.5 µM
U-251
  IC50: 20.7 µM

## Cn1nnc2c(C(N)=O)ncn2c1=O [TEMOZOLOMIDE]
[1]
  logP: -1.15
[2]
  IC50: 25.4 µM
[3]
  IC50: > 500 µM
LN-229
  IC50: > 1000 µM
U-251
  IC50: > 500 µM
[4]
  IC50: > 500 µM
